Assay results published in patent publication US20130115256A1, “METHODS FOR TREATING OR PREVENTING VASCULAR GRAFT FAILURE” (priority 2010, published 2013).

Columns and labels:
[1] = test system: immortalized human pleural mesothelial cells (ATCC CRL-9444); test: TNF-α-induced IL-6 expression in mesothelial cells (ELISA); format: cell-based
Source text: In order to examine the efficacy of MMI-0100 ([…]; SEQ ID NO: 1) in inhibiting the production of inflammatory cytokines, an inflammatory response was triggered in vitro by applying TNF-α to immortalized human pleural mesothelial cells (ATCC CRL-9444). A mesothelial cell is a cell type that forms a monolayer of specialized pavement-like cells (mesothelium) that lines the body's abdominal cavities and internal organs. The primary function of this layer, the mesothelium, is to provide a slippery, non-adhesive, and protective surface. Mesothelial cells also are involved in transport of fluid and cells across the peritoneal (abdominal) cavities, antigen presentation, inflammation, tissue repair, coagulation, and tumor cell adhesion. It is well known that mesothelial cells play important role in the peritoneal inflammatory response. In response to bacterial products and macrophage-derived inflammatory cytokines (e.g., TNF-α), mesothelial cells produce Interleukin-1 (IL-1), Interleukin-6 (IL-6), and Interleukin-8 (IL-8), thus amplifying the inflammatory signals and recruiting leukocytes into the infected abdominal cavity.
Expression of inflammatory cytokines was induced by applying 1 or 10 ng/ml of TNF-α to cultured mesothelial cells. Briefly, immortalized human pleural mesothelial cells (ATCC CRL-9444) were grown in Medium199 with Earle's BSS, 0.75 mM L-glutamine (Mediatech Inc., Manassas, Va.), 1.25 g/l sodium bicarbonate (Sigma), 3.3 nM epidermal growth factor (EGF) (MBL International, Woburn, Mass.), 40 nM hydrocortisone (Sigma), 870 nM insulin (MBL International), 20 mM HEPES (Sigma), trace elements mixture B (Mediatech Inc., Waltham, Mass.), 10% fetal bovine serum (FBS) (Hyclone), and 1% penicillin/streptomycin (Mediatech Inc., Waltham, Mass.). […] Human mesothelial cells were treated with two different concentrations (1 and 10 ng/mL) of TNF-α for 2, 6, 12, and 24 hours (data not shown). […] Without TNF-α stimulation, mesothelial cells made negligible amounts of IL-6. […] In subsequent experiments designed to determine whether the MMI-0100 peptide ([…]; SEQ ID NO: 1) could reduce TNF-α induced IL-6 expression, both 1 and 10 ng/mL of TNF-α were selected as stimuli. 10 ng/mL of TNF-α is regarded as more physiologically relevant for mesothelial cells.
Prior to cytokine and/or inhibitor treatment, cells were allowed to acclimate in serum-free media consisting of only Medium 199 with Earle's BSS, 0.75 mM L-glutamine, 1.25 g/l sodium bicarbonate, 20 mM HEPES, trace elements mixture B (Mediatech Inc., Waltham, Mass.), and 1% penicillin/streptomycin (Mediatech Inc., Waltham, Mass.) for 24 hours. After the adapting period, cytokines (TNF-α and IL-1β) with or without MMI-0100 peptide or Rottlerin (Tocris Bioscience, Ellisville, Mo.; IC50=5 μM) were added to the media in order to compare the efficacy of MMI-0100 ([…]; SEQ ID NO: 1) with that of Rottlerin. Specifically, serum-starved mesothelial cells were treated with two different concentrations (1000 μM or 3000 μM) of MMI-0100 ([…] (SEQ ID NO: 1)) at three different time points (6 hours, 12 hours, and 24 hours) using two different concentrations of TNF-α (1 ng/ml or 10 ng/ml) or using 1 ng/ml of IL-1β. Average concentration of IL-6 (pg/ml per 10^5 cells) at each time was determined by cytokine-specific ELISA.

[2] = test system: human saphenous vein (HSV); test: Sodium nitroprusside-induced relaxation of human saphenous vein in muscle bath; conditions: control peptide 50 or 100 μM; data not shown
Procedure: In preparation for testing vein segment functional viability, HSV rings were weighed and their lengths recorded. To focus on smooth muscle responses, the endothelium was mechanically denuded by rolling the luminal surface of each ring at the tip of a fine vascular forceps before suspension in a muscle bath containing a bicarbonate buffer (120 mM NaCl, 4.7 mM KCl, 1.0 mM MgSO4, 1.0 mM NaH2PO4, 10 mM glucose, 1.5 mM CaCl2, and 25 mM […], pH 7.4) equilibrated with 95% O2 and 5% CO2 at 37° C. The rings were stretched and the length progressively adjusted until maximal tension was obtained. Normalized reactivity was obtained by determining the passive length-tension relationship for each vessel segment. Rings were maintained at a resting tension of 1 g, which produces maximal responses to contractile agonists as previously determined, and equilibrated for 2 hours in buffer. Force measurements were obtained using a Radnoti Glass Technology (Monrovia, Calif.) force transducer (159901A) interfaced with a Powerlab data acquisition system and Chart software (AD Instruments, Colorado Springs, Colo.).
HSV rings were first contracted with 110 mM KCl (with equimolar replacement of NaCl in bicarbonate buffer) and the generated force was measured. 110 mM KCl causes membrane depolarization, leading to contraction of vessels containing functionally viable smooth muscle. After multiple KCl challenges, rings were washed and allowed to equilibrate in bicarbonate solution for 30 min, and then contracted with phenylephrine (PE, 10^−7-10^−6 M). Rings were relaxed with a cumulative log dose of sodium nitroprusside (SNP), a nitric oxide donor, and the force generated was recorded. All rings were again washed and equilibrated in buffer for 15 minutes. Rings were then incubated with either buffer alone or buffer plus 100 μM of MMI-0100 ([…] (SEQ ID NO: 1)) for 2 hours, followed by treatment with the same doses of PE and SNP, and the forces generated again recorded. Measured force was normalized for ring weight and length and percent relaxation was calculated; force generated with 10^−6M of PE was set as 0% relaxation.
The enhancing effect of MMI-0100 ([…]; SEQ ID NO: 1) on smooth muscle relaxation was examined by pre-treating harvested human saphenous vein (HSV) with MMI-0100 ([…]; SEQ ID NO: 1) before SNP treatment. Segments of human saphenous vein (HSV) were equilibrated in a muscle bath and pretreated with a control solution (0.01M phosphate-buffered solution, PBS) or MMI-0100 ([…] (SEQ ID NO: 1); 30 μM, 2 hrs), contracted with norepinephrine. and relaxed with increasing doses of sodium nitroprusside (SNP, 0-1 μM). Percentage of relaxation at 0, 0.01, 0.1, and 1.0 μM of SNP was measured. […]

Compound: CC(=O)c1c(O)c(C)c(O)c(Cc2c(O)c3c(c(C(=O)/C=C/c4ccccc4)c2O)OC(C)(C)C=C3)c1O [Rottlerin, reference compound]
- IL-6 expression compared with TNF-α alone ([1]; 1 ng/mL TNF-α, 6 hrs, Rottlerin): significantly increased
- IL-6 expression ([1]; 1 ng/mL TNF-α, Rottlerin): ineffective
- IL-6 expression ([1]; 10 ng/mL TNF-α, Rottlerin 1 μM, twenty-four hours): reduced IL-6 expression

Compound: YARAAARQARA (mammal) [PTD peptide, control peptide (transduction domain, PTD peptide), reference compound]
- relaxation response compared to untreated control [2]: no significant difference
